PMC10607366 (International Journal of Molecular Sciences, 2023)
Counter-ions that a name gives are not always drawn.

Experiments:
[1] = test system: H1N1 A/Netherlands/602/2009 (N09); assay: microbe, parasite or virus in culture; format: cell-based; details: Influenza A virus, H1N1, MDCK, read-out: EC50 (95% CI)
in vitro = details: dog
influenza virus = details: cited from earlier work
[2] = test system: H1N1 A/Netherlands/602/2009 (N09); details: 10 µM
[3] = test system: H1N1 A/Netherlands/602/2009 (N09); assay: microbe, parasite or virus in culture; format: cell-based, Influenza A virus; details: for Inhibition (%): 10 µM; for inhibition at 10 µM: Influenza A virus, H1N1, A549, 48 h
[4] = test system: H1N1 A/Netherlands/602/2009 (N09); format: cell-based, Influenza A virus
[5] = test system: H1N1 A/Netherlands/602/2009 (N09); assay: microbe, parasite or virus in culture; details: Influenza A virus, H1N1, A549, 48 h
[6] = test system: clinical influenza A strain (H1N1); format: cell-based, Influenza A virus
[7] = test system: H1N1 A/Netherlands/602/2009 (N09); format: cell-based, Influenza A virus; remark: listed apart in the source
[8] = test system: H1N1 A/Netherlands/602/2009 (N09); format: cell-based, Influenza A virus; remark: listed apart in the source

Structure (SMILES)	EC50 [1]	CC50 (in vitro)	inhibition at 10 µM [3]	viability at 10 µM [5]	other results
C[C@H](Cc1ccc(O)c(O)c1)[C@@H](C)Cc1ccc(O)c(O)c1 [Masoprocol]	> 10 µM	84.9 µM			
Oc1ccc(/C=C/c2cc(O)cc(O)c2)cc1 [Resveratrol]	> 10 µM	52 µM			Reported inhibition of influenza (influenza virus): inhibit influenza
CCN(CCCc1ccccc1)CCCc1ccccc1.O=C(O)CC(O)(CC(=O)O)C(=O)O [Alverine citrate salt]					Viability (%) [2]: 145%; Inhibition (%) [3]: 99%
CCN(CC)CCNC(C(=O)OCCC(C)C)c1ccccc1.Cl.Cl (stereo not drawn) [Camylofine chlorhydrate]					Viability (%) [2]: 97%; Inhibition (%) [3]: 97%
CC/C(=C(/CC)c1ccc(O)cc1)c1ccc(O)cc1 [Diethylstilbestrol]		9.81 µM	114%	72%	Inhibition of SARS-CoV-2 (SARS-CoV-2 B.1.1.7): did not inhibit; Inhibition, pre-treatment [4]: good inhibition; Potency when added post-infection [4]: potency of the compound was lost; Reduction of viral load [6]: more than one log; Toxicity in Mucilair tissues (MucilAir tissues): absence of toxicity; Viral RNA replication [7]: inhibited; Attachment of the virus [8]: not inhibited
C=C[C@@](C)(/C=C/c1ccc(O)cc1)CCC=C(C)C [Bakuchiol]	0.94 µM				Reported inhibition of influenza virus (influenza virus): inhibit influenza virus; CC50 at 24 h (in vitro): 46.2 µM
C/C=C(/C(=C/C)c1ccc(O)cc1)c1ccc(O)cc1 [Dienestrol]	3.13 µM	32.6 µM			
COc1ccc2c(c1)[C@]13CCCC[C@@H]1[C@H](C2)N(C)CC3 [Dextromethorphan hydrobromide monohydrate]			100%	103%	
CC[C@H](c1ccc(O)cc1)[C@@H](CC)c1ccc(O)cc1 [Hexestrol]	0.14 µM	46.9 µM			
OC(CCN1CCCC1)(c1ccccc1)C1CCCCC1 (stereo not drawn) [Procyclidine hydrochloride]			97%	91%	
